26 molecules from patent US9718760B2, “Plasminogen activator inhibitor-1 inhibitors and methods of use thereof” (THE REGENTS OF THE UNIVERSITY OF MICHIGAN, priority 2012, dated 2017) can be followed below.

What all share (assay type): biochemical
The target of test [1] is T1, recombinant active human PAI-1 (Homo sapiens (Human), UniProt P05121). Nature of the test: Fluorometric PAI-1/uPA IC50 plate assay at pH 7.4. As to the method: To determine the efficacy of various synthesized compounds as PAI-1 inhibitors, a fluorometric plate assay was carried out to measure the half maximal inhibitory concentration (IC50) of these compounds on recombinant active human PAI-1 in vitro. An IC50 is a measure of the effectiveness of a compound in inhibiting biological or biochemical function. Stated another way, IC50 represents the concentration of a drug that is required for 50% inhibition in vitro.
PAI-1 inhibitor compounds were dissolved in DMSO to a final concentration of (10-50 mM), depending upon solubility. Compounds were then diluted in physiologic buffer (40 mM HEPES, 100 mM NaCl, 0.05% Tween-20, pH7.4) containing 10% DMSO and a dilution series (from 0 to 1000 uM depending on solubility) was prepared. 80 μL of compound was added per well to a 96-well black, opaque microplate in duplicate. 10 μL of 20 nM Recombinant active human PAI-1 (Molecular Innovations) in physiologic buffer (40 mM HEPES, 100 mM NaCl, 0.05% Tween-20, 10% DMSO, pH 7.4), or […] physiologic buffer with 10% human plasma, was added and the mixture was agitated for 15 minutes at room temperature. 10 μL of 25 nM uPA (Rheotromb®) was added to each reaction well and the plate was agitated for an additional 30 minutes at room temperature. Tripeptide aminomethylcoumarin Gly-Gly-Arg-AMC (Calbiochem) fluorogenic substrate (100 μL of 100 μM) was then added and residual uPA activity was determined based upon cleavage of this substrate. The rate of AMC release by uPA (fluorescence) was measured at an excitation wavelength of 370 nm and an emission wavelength of 440 nm. Controls included PAI-1 and uPA in the absence of compound and uPA alone. Percent PAI-1 inhibition was calculated using the following formula: [(uPA alone-uPA/PAI-1+ compound)/(uPA alone-PAI-1/uPA)]*100%. The IC50 was calculated using Graphit (IC50 0-100%).

In test [2] the target is T1, recombinant active human PAI-1. The test can be described thus: Fluorometric PAI-1/uPA IC50 plate assay at pH 7.8. The following applies: physiologic buffer. As to the method:
To determine the efficacy of various synthesized compounds as PAI-1 inhibitors at pH 7.8, additional fluorometric plate assays were carried out to measure the half maximal inhibitory concentration (IC50) of these compounds on recombinant active human PAI-1 in vitro.
PAI-1 inhibitor compounds were dissolved in DMSO to a final concentration of (10-50 mM), depending upon solubility. […] Fluorescence, as a measure of the rate of AMC release by uPA, was read at the following wavelengths; excitation 370 nm, emission 440 nm. Controls included PAI-1 and uPA in the absence of compound and uPA alone. Percent PAI-1 inhibition was calculated using the following formula: [(uPA alone-uPA/PAI-1+ compound)/(uPA alone-PAI-1/uPA)]*100%. The IC50 was calculated using Graphit (IC50 0-100%).

Test [3] has the same target. Nature of the test: Fluorometric PAI-1/tPA IC50 plate assay at pH 7.8. The following applies: physiologic buffer. On the procedure: (§1) Additional fluorometric plate assays were carried out, as set out below, to determine the IC50 of various synthesized compounds as PAI-1 inhibitors.
PAI-1 inhibitor compounds were dissolved in DMSO to a final concentration of (10-50 mM), depending upon solubility. […] Tissue type PA activity in each reaction mixture was determined by adding Phe-Gly-Arg-AMC fluorogenic substrate (100 μL of 100 μM) (Centerchem). The rate of AMC release by tPA was measured at an excitation wavelength of 370 nm and an emission wavelength of 440 nm. Controls included PAI-1 and tPA in the absence of compound and tPA alone. Percent PAI-1 inhibition was calculated using the following formula: [(tPA alone-tPA/PAI-1+ compound)/(tPA alone-PAI-1/tPA)]*100%. The IC50 is calculated using Graphit (IC50 0-100%).

Test [4] deals with anti-thrombin III (ATIII) (Homo sapiens (Human), UniProt P01008). Nature of the test: Fluorometric ATIII/αIIa IC50 plate assay at pH 7.8 (specificity control). The following applies: physiologic buffer. On the procedure: as §1
Alpha-thrombin is an active enzyme, related to uPA or tPA. Alpha-thrombin is inhibited by the serpin ATIII, which is closely related to PAI-1. This assay was used therefore as a control in testing for specificity of the PAI-1 inhibitor compounds. Thus, any compound that is specific for inhibiting PAI-1 should not inhibit ATIII.
PAI-1 inhibitor compounds were dissolved in DMSO to a final concentration of (10-50 mM), depending upon solubility. […] 100 μL of 100 μM fluorogenic, tripeptide aminomethylcoumarin benzoyl Phe-Val-Arg-AMC substrate was then added and residual αIIa activity was determined based upon cleavage of this substrate. The rate of AMC release by αIIa was measured at an excitation wavelength of 370 nm and an emission wavelength of 440 nm. Controls included PAI-1 and αIIa in the absence of compound and αIIa alone. Percent PAI-1 inhibition is calculated using the following formula: [(αIIa alone-αIIa/PAI-1+ compound)/(αIIa alone-PAI-1/αIIa)]*100%. The IC50 is calculated using Graphit (IC50 0-100%).

The mark [5] stands for this setting: physiologic buffer (40 mM HEPES, 100 mM NaCl, 0.05% Tween-20, 10% DMSO), read-out: PAI-1/uPA IC50 in buffer.

T1 sequence (P05121 24-402): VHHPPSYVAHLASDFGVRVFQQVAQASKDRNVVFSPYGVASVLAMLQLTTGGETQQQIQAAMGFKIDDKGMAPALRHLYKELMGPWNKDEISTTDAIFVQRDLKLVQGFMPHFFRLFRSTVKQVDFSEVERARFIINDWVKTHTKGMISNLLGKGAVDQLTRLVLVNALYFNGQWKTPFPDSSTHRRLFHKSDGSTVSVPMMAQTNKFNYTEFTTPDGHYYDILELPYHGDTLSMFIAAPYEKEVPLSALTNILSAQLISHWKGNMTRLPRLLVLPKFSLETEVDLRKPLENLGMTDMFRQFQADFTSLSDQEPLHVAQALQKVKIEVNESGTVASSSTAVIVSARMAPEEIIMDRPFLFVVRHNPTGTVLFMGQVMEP
Sequence of anti-thrombin III (ATIII) (P01008 33-464 limits assumed, species assumed): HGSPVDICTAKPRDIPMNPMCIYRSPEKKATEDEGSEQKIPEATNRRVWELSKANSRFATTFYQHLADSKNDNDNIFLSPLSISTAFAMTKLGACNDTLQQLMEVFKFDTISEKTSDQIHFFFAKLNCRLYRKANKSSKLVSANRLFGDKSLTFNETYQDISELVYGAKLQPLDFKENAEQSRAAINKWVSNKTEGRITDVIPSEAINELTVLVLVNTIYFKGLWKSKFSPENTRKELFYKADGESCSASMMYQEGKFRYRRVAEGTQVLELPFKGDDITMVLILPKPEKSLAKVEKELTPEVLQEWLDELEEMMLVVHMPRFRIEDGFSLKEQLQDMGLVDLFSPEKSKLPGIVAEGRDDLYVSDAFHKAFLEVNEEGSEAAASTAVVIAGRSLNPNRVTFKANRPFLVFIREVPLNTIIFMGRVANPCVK

Regarding `CCCCCCCCN(S(=O)(=O)c1cccc(O)c1)S(=O)(=O)c1ccc(O)c(O)c1` [C292], the IC50 in test [1] (setting [5]) came to 68 µM; in test [2], 4.94 µM. With `O=S(=O)(c1ccc(O)c(O)c1)N(c1ccc(-c2ccccc2)cc1)S(=O)(=O)c1ccc(O)c(O)c1` [C165], the IC50 in test [2] turned out to be 0.35 µM; in test [3], 0.51 µM.

For `CCCCCCCCN(S(=O)(=O)c1ccc(O)c(O)c1)S(=O)(=O)c1cc(F)c(O)c(F)c1` [C152], the results for the IC50 in test [2], in test [3] and in test [4] were 1.57 µM, 1.71 µM and 87 µM, respectively. As for `CCCCCCCCN(S(=O)(=O)c1cccc(O)c1)S(=O)(=O)c1cccc(O)c1` [C293], the IC50 in test [1] (setting [5]) worked out at 123 µM; in test [2] it was 77.6 µM. Turning to `O=S(=O)(c1ccc(O)c(O)c1)N(CCc1ccccn1)S(=O)(=O)c1ccc(O)c(O)c1` [C162], the IC50 in test [2] was found to be 3.9 µM; in test [3] it was 7.59 µM. In the same order, the values of `O=S(=O)(c1ccc(O)c(O)c1)N(c1cccc(C(F)(F)F)c1)S(=O)(=O)c1ccc(O)c(O)c1` [C163] are 0.288 µM and 0.611 µM. With `CCCCCCCCNC(=O)c1cc(O)c(O)c(O)c1` [C161], the figures for the IC50 in test [2], in test [3] and in test [4] were 3.7 µM, 2.21 µM and 1670 µM, respectively. As for `O=C(CCc1ccc(O)c(O)c1)NCc1ccc(Cl)c(C(F)(F)F)c1` [C330, N-(4-chloro-3-(trifluoromethyl)benzyl)-3-(3,4-dihydroxyphenyl)propanamide], the IC50 turned out to be 365 µM in test [1] (setting [5]); 112 µM in test [1] (physiologic buffer with 1.5% BSA (15 mg/mL), read-out: PAI-1/uPA IC50 in 1.5% BSA buffer); 115 µM in test [1] (physiologic buffer with 10% human plasma, read-out: PAI-1/uPA IC50 in 10% plasma buffer); 423 µM in test [2].

On to `O=S(=O)(NCc1ccccc1)c1ccc(O)c(O)c1` [C160], for which the IC50 in test [2] is 39 µM; in test [3] it was 58.2 µM; in test [4] it was 2330 µM.

Regarding `CCCCCCCCN(S(=O)(=O)c1cc(F)c(O)c(F)c1)S(=O)(=O)c1cc(F)c(O)c(F)c1` [C155], the IC50 is 30.4 µM in test [2], 34.8 µM in test [3] and 2330 µM in test [4]. For `O=S(=O)(NCc1ccc(Cl)c(C(F)(F)F)c1)c1ccc(O)c(O)c1` [C303], the IC50 turned out to be 12.6 µM in test [1] (setting [5]) and 13.6 µM in test [2]. In the case of `CCCCCCCCCCN(S(=O)(=O)c1ccc(O)c(O)c1)S(=O)(=O)c1ccc(O)c(O)c1` [C157], the IC50 in test [2] turned out to be 0.25 µM; in test [3] it was 0.98 µM; in test [4] it was 44.4 µM.

Regarding `CCCCCCCCCCCCN(S(=O)(=O)c1ccc(O)c(O)c1)S(=O)(=O)c1ccc(O)c(O)c1` [C158], the figures for the IC50 in test [2], in test [3] and in test [4] were 2.6 µM, 1.44 µM and 547 µM, respectively. As for `CCCCCCCCN(S(=O)(=O)c1ccc(O)cc1)S(=O)(=O)c1cccc(O)c1` [C294], the IC50 in test [1] (setting [5]) amounted to 234 µM; in test [2] it was 120 µM. As to `CCCCCCCCCCN(CCN(C)S(=O)(=O)c1ccc(O)c(O)c1)S(=O)(=O)c1ccc(O)c(O)c1` [C196], in test [2], the IC50 came out at 0.45 µM. Still for that read-out and setting: the result for `O=S(=O)(c1ccccc1)N(CCc1ccc(O)c(O)c1)S(=O)(=O)c1ccc(O)c(O)c1` [C197] reads 0.173 µM; that for `O=C1S/C(=C\c2ccc(O)c(O)c2)C(=O)N1Cc1cccc(Br)c1` [C206, (Z)-3-(3-bromobenzyl)-5-(3,4-dihydroxybenzylidene)thiazolidine-2,4-dione], 4.96 µM. Still for that read-out and setting: the result for `CCCCCCCN(CCN(CCCCCCC)S(=O)(=O)c1ccc(O)c(O)c1)S(=O)(=O)c1ccc(O)c(O)c1` [C184] reads 0.59 µM.

Regarding `CC(C)(C)OC(=O)NCCCOC(=O)c1cc(O)c(O)c(O)c1` [C156], the results for the IC50 in test [2] and in test [3] were 189 µM and 581 µM, respectively. As to `CCCCCCc1ccc(NS(=O)(=O)c2ccc(O)c(O)c2)cc1` [C187], the IC50 in test [2] was 0.91 µM. For the molecule `O=S(=O)(NCCc1ccc(O)c(O)c1)c1ccc(O)c(O)c1` [C198], the IC50 in test [2] came out at 0.051 µM. Turning to `CCCCCCCCN(S(=O)(=O)c1ccc(-c2ccc(OC(F)(F)F)cc2)cc1)S(=O)(=O)c1ccc(O)c(O)c1` [C173], the IC50 in test [2] came out at 19.2 µM.

On to `O=C(O)[C@H](NS(=O)(=O)c1ccc(O)c(O)c1)c1ccccc1` [C274], for which the IC50 in test [2] turned out to be 73.6 µM. As to `O=S(=O)(c1ccc(O)c(O)c1)N(c1ccccc1)S(=O)(=O)c1ccc(O)c(O)c1` [C153], the IC50 in test [2] turned out to be 0.7 µM; in test [3], 1.02 µM. Turning to `O=C(O)[C@H](Cc1ccccc1)NS(=O)(=O)c1ccc(O)c(O)c1` [C272], the IC50 in test [2] is 16.4 µM.

On to `O=S(=O)(Nc1ccc(-c2cccc(F)c2)cc1)c1ccc(O)c(O)c1` [C190], for which the IC50 in test [2] amounted to 9.7 µM.
